Assay results: patent publication US10807959B2, “WDR5-MLL1 inhibitors and modulators” (Vanderbilt University, priority 2018, dated 2020)

Molecular target: WDR5 (Homo sapiens (Human), UniProt P61964)
Test: TR-FRET binding assay, displacement of 10mer-Thr-FAM probe from His-tagged WDR5
Conditions: not given
Procedure: The LanthaScreenTM Elite Tb-anti-HIS Antibody from ThermoFisher Scientific was used for this purpose. […] The ratio of the 520 and 495 signals are then utilized to generate a dose-response curve to calculate an IC50 value. […] WDR[…] tag protein is used at 2 nM.

| Ki | Compound |
| --- | --- |
| 0.622 nM | COc1ccc(C(=O)NCc2ccc(Cl)c(Cl)c2)cc1CNC1=NCCN1 [Example B28] |
| 0.444 nM | O=C(NCc1ccc(Cl)c(Cl)c1)c1cc(F)c(F)c(CNC2=NCCN2)c1 [Example B33] |
| 0.189 nM | Cc1cc(CNC(=O)c2ccc(F)c(CNC3=NCCN3)c2)ccc1Cl [Example B47] |
| 0.131 nM | COc1cc(CNC(=O)c2cc(CNC3=NCCN3)cc(-c3ccc(F)nc3C)c2)cc(OC)c1 [Example B63] |

| Compound | Ki |
| --- | --- |
| O=C(NCc1ccc(Cl)c(Cl)c1)c1cc(CNC2=NCCN2)ccc1F [Example B36, N-(3,4-dichlorobenzyl)-5-(((4,5-dihydro-1H-imidazol-2-yl)amino)methyl)-2-fluorobenzamide] | 0.917 nM |

Same assay, conditions: Inhibition of WDR5 by TR-FRET assay

| Compound | Ki |
| --- | --- |
| Cc1cc([C@H](C)NC(=O)c2cc(CNC3=NCCC3)cc(-c3ccc(F)cc3C(F)(F)F)n2)ccc1Cl [Example 92, (S)—N-(1-(4-chloro-3-methylphenyl)ethyl)-4-(((3,4-dihydro-2H-pyrrol-5-yl)amino)methyl)-6-(4-fluoro-2-(trifluoromethyl)phenyl)picolinamide] | 1.5 nM |
| COc1cc(OC)cc(C(C)NC(=O)c2cc(CNC3=NCCC3)cc(-c3ccc(F)cc3C(F)(F)F)n2)c1 (stereo not drawn) [Example 93, 4-(((3,4-dihydro-2H-pyrrol-5-yl)amino)methyl)-N-(1-(3,5-dimethoxyphenyl)ethyl)-6-(4-fluoro-2-(trifluoromethyl)phenyl)picolinamide] | 3.3 nM |
| COc1ccnc(CNC(=O)c2cc(CNC3=NCCC3)cc(-c3ccc(F)cc3C(F)(F)F)n2)c1 [Example 94, 4-(((3,4-dihydro-2H-pyrrol-5-yl)amino)methyl)-6-(4-fluoro-2-(trifluoromethyl)phenyl)-N-((4-methoxypyridin-2-yl)methyl)picolinamide] | 1.2 nM |
| Cc1ccnc(C(NC(=O)c2cc(CNC3=NCCC3)cc(-c3ccc(F)cc3C)n2)C2CC2)c1 (stereo not drawn) [Example 95, N-(Cyclopropyl(4-methylpyridin-2-yl)methyl)-4-(((3,4-dihydro-2H-pyrrol-5-yl)amino)methyl)-6-(4-fluoro-2-methylphenyl)picolinamide] | 8.6 nM |
| Cc1cc(C(C)NC(=O)c2cc(CNC3=NCCC3)cc(-c3ccc(F)cc3C(F)(F)F)n2)ncc1Cl (stereo not drawn) [Example 96, N-(1-(5-chloro-4-methylpyridin-2-yl)ethyl)-4-(((3,4-dihydro-2H-pyrrol-5-yl)amino)methyl)-6-(4-fluoro-2-(trifluoromethyl)phenyl)picolinamide] | 1.5 nM |
| Cc1cc(F)ccc1-c1cc(CNC2=NCCC2)cc(C(=O)N[C@@H](C)c2ccc(F)c(C(F)(F)F)c2)n1 [Example 97, (S)-4-(((3,4-dihydro-2H-pyrrol-5-yl)amino)methyl)-6-(4-fluoro-2-methylphenyl)-N-(1-(4-fluoro-3-(trifluoromethyl)phenyl)ethyl)picolinamide] | 7.3 nM |
| Cc1nc(F)ccc1-c1cc(CNC2=NCCN2)cc(C(=O)NCc2ccc(=O)[nH]c2)n1 [Example 98, 4-(((4,5-dihydro-1H-imidazol-2-yl)amino)methyl)-6′-fluoro-2′-methyl-N-((6-oxo-1,6-dihydropyridin-3-yl)methyl)-[2,3′-bipyridine]-6-carboxamide] | 23 nM |
| COc1cc(CNC(=O)c2cc(CNC(=N)N)cc(-c3ccnc(C)c3)c2)cc(OC)c1 [Example 99, N-(3,5-Dimethoxybenzyl)-3-(guanidinomethyl)-5-(2-methylpyridin-4-yl)benzamide] | 1.1 nM |
| Cc1cc(-c2cc(CNC(=N)N)cc(C(=O)NCc3cc(F)cc(Cl)c3)c2)ccn1 [Example 100, N-(3-Chloro-5-fluorobenzyl)-3-(guanidinomethyl)-5-(2-methylpyridin-4-yl)benzamide] | 2.4 nM |
| COc1ccc(CNC(=O)c2cc(CNC(=N)N)cc(-c3ccnc(C)c3)c2)cc1Cl [Example 101, N-(3-Chloro-4-methoxybenzyl)-3-(guanidinomethyl)-5-(2-methylpyridin-4-yl)benzamide] | 2.1 nM |
| COc1ccnc(CNC(=O)c2cc(CNC(=N)N)cc(-c3ccnc(C)c3)c2)c1 [Example 102, 3-(Guanidinomethyl)-N-((4-methoxypyridin-2-yl)methyl)-5-(2-methylpyridin-4-yl)benzamide] | 1 nM |
| Cc1cc(-c2cc(CNC(=N)N)cc(C(=O)NCc3ccc(Cl)cn3)c2)ccn1 [Example 103, N-((5-Chloropyridin-2-yl)methyl)-3-(guanidinomethyl)-5-(2-methylpyridin-4-yl)benzamide] | 3.3 nM |
| Cc1ccc(CNC(=O)c2cc(CNC(=N)N)cc(-c3ccnc(C)c3)c2)cn1 [Example 104, 3-(guanidinomethyl)-N-((6-methylpyridin-3-yl)methyl)-5-(2-methylpyridin-4-yl)benzamide] | 12 nM |
| CCn1cc(-c2cc(CNC(=N)CC3CC3)cc(C(=O)N[C@H](c3ccc(F)c(C)c3)C3CC3)c2)c(C(F)(F)F)n1 [Example 107, (S)—N-(Cyclopropyl(4-fluoro-3-methylphenyl)methyl)-3-((2-cyclopropylacetimidamido)methyl)-5-(1-ethyl-3-(trifluoromethyl)-1H-pyrazol-4-yl)benzamide] | 0.15 nM |
| CCn1cc(-c2cc(CNC(=N)C3CCOC3)cc(C(=O)N[C@H](c3ccc(F)c(C)c3)C3CC3)c2)c(C(F)(F)F)n1 (stereo partly drawn) [Example 108, N—((S)-Cyclopropyl(4-fluoro-3-methylphenyl)methyl)-3-(1-ethyl-3-(trifluoromethyl)-1H-pyrazol-4-yl)-5-((tetrahydrofuran-3-carboximidamido)methyl)benzamide] | 2 nM |
| CCn1cc(-c2cc(CNC(=N)C3(C)CC3)cc(C(=O)N[C@H](c3ccc(F)c(C)c3)C3CC3)c2)c(C(F)(F)F)n1 [Example 109, (S)—N-(Cyclopropyl(4-fluoro-3-methylphenyl)methyl)-3-(1-ethyl-3-(trifluoromethyl)-1H-pyrazol-4-yl)-5-((1-methylcyclopropane-1-carboximidamido)methyl)benzamide] | 0.13 nM |

| Compound | Ki |
| --- | --- |
| CC1(NC(=O)c2cc(Cn3ccnc3)cc(-c3ccc(F)cc3Cl)c2)CCCC1 [Example 138, 5-((1H-Imidazol-1-yl)methyl)-2′-chloro-4′-fluoro-N-(1-methylcyclopentyl)-[1,1′-biphenyl]-3-carboxamide] | 50 nM |
| Cc1nc(F)ccc1-c1cc(Cn2ccnc2C2CC2)cc(C(=O)NCc2ccc(Cl)c(Cl)c2)c1 [Example 139, 3-((2-Cyclopropyl-1H-imidazol-1-yl)methyl)-N-(3,4-dichlorobenzyl)-5-(6-fluoro-2-methylpyridin-3-yl)benzamide] | 1.6 nM |
| COc1cc(CN(C)C(=O)c2cc(Cn3ccnc3)cc(-c3ccc(F)nc3C)c2)cc(OC)c1 [Example 140, 3-((1H-Imidazol-1-yl)methyl)-N-(3,5-dimethoxybenzyl)-5-(6-fluoro-2-methylpyridin-3-yl)-N-methylbenzamide] | 95 nM |
| O=C(NCc1ccc(Cl)c(Cl)c1)c1cc(Cn2ccnc2)cc(C(F)(F)F)c1 [Example 141, 3-((1H-Imidazol-1-yl)methyl)-N-(3,4-dichlorobenzyl)-5-(trifluoromethyl)benzamide] | 10 nM |
| O=C(NCc1ccc(Cl)c(Cl)c1)c1cc(Cn2ccnc2)cc(OC2CCC2)c1 [Example 142, 3-((1H-Imidazol-1-yl)methyl)-5-cyclobutoxy-N-(3,4-dichlorobenzyl)benzamide] | 0.59 nM |
| Cc1nccn1Cc1cc(OC2CCC2)cc(C(=O)NCc2ccc(Cl)c(Cl)c2)c1 [Example 143, 3-Cyclobutoxy-N-(3,4-dichlorobenzyl)-5-((2-methyl-1H-imidazol-1-yl)methyl)benzamide] | 0.43 nM |
| Cc1ccnc(C(NC(=O)c2cc(Cn3ccnc3C)cc(N3CCOCC3)c2)C2CC2)c1 (stereo not drawn) [Example 144, N-(cyclopropyl(4-methylpyridin-2-yl)methyl)-3-((2-methyl-1H-imidazol-1-yl)methyl)-5-morpholinobenzamide] | 4.77 nM |
| COc1cc(CNC(=O)c2cc(Cn3ccnc3)cc(-c3ccc(=O)[nH]c3)c2)cc(OC)c1 [Example 145, 3-((1H-Imidazol-1-yl)methyl)-N-(3,5-dimethoxybenzyl)-5-(6-oxo-1,6-dihydropyridin-3-yl)benzamide] | 22 nM |
| COc1ccnc(CNC(=O)c2cc(C)c(OC)c(Cn3ccnc3C)c2)c1 [Example 146, 4-Methoxy-N-((4-methoxypyridin-2-yl)methyl)-3-methyl-5-((2-methyl-1H-imidazol-1-yl)methyl)benzamide] | 500 nM |
| Cc1nccn1Cc1cc(C(=O)NCc2ccc(Cl)c(Cl)c2)cc(-c2cccc(CO)c2)c1 [Example 147, N-(3,4-dichlorobenzyl)-3′-(hydroxymethyl)-5-((2-methyl-1H-imidazol-1-yl)methyl)-[1,1′-biphenyl]-3-carboxamide] | 0.31 nM |
| COc1cc(OC)cc(C(C)NC(=O)c2cc(Cn3ccnc3C)cc(-c3cccc(CO)c3)n2)c1 (stereo not drawn) [Example 157, N-(1-(3,5-dimethoxyphenyl)ethyl)-6-(3-(hydroxymethyl)phenyl)-4-((2-methyl-1H-imidazol-1-yl)methyl)picolinamide] | 27 nM |
| COc1cc(OC)cc(C(C)NC(=O)c2cc(Cn3ccnc3C)cc(-c3ccc(F)cc3OC)n2)c1 (stereo not drawn) [Example 158, N-(1-(3,5-dimethoxyphenyl)ethyl)-6-(4-fluoro-2-methoxyphenyl)-4-((2-methyl-1H-imidazol-1-yl)methyl)picolinamide] | 8 nM |
| COc1cc(OC)cc(C(C)NC(=O)c2cc(Cn3ccnc3C)cc(-c3ccc(F)c(C(N)=O)c3)n2)c1 (stereo not drawn) [Example 161, 6-(3-Carbamoyl-4-fluorophenyl)-N-(1-(3,5-dimethoxyphenyl)ethyl)-4-((2-methyl-1H-imidazol-1-yl)methyl)picolinamide] | > 33 nM |
| COc1cc(OC)cc(C(C)NC(=O)c2cc(Cn3ccnc3C)cc(-c3ccc(F)c(CO)c3)n2)c1 (stereo not drawn) [Example 163, N-(1-(3,5-dimethoxyphenyl)ethyl)-6-(4-fluoro-3-(hydroxymethyl)phenyl)-4-((2-methyl-1H-imidazol-1-yl)methyl)picolinamide] | > 33 nM |
| COc1cc(F)ccc1-c1cc(Cn2ccnc2C)cc(C(=O)NCc2ccc(Cl)c(Cl)c2)n1 [Example 165, N-(3,4-Dichlorobenzyl)-6-(4-fluoro-2-methoxyphenyl)-4-((2-methyl-1H-imidazol-1-yl)methyl)picolinamide] | 11 nM |
